{"source": "patent US9615572B1", "about": "“Disinfectant spray comprising copper iodide” (PEN Inc., priority 2014, dated 2017)", "system": "feline calcivirus ATCC VR-782", "details": "20 mg/L in a water based solution applied to a surface; 10 minutes exposure; non-enveloped virus", "description": "Copper ions (20 mg/L) in a water based solution were applied to a surface with the non-enveloped feline calcivirus ATCC VR-782. […] In our case we wanted to have an idea about the rate of killing and this is why we limited the test to 10 minutes.", "data": [{"substance": "copper iodide", "values": [{"measurement": "reduction relative to the control", "value": 82.22, "unit": "%"}]}]}
